Measured values as given in patent publication US20060069132A1, “Azolecarboxamide herbicides” (priority 2004, published 2006).

How the values were obtained:
giant foxtail [1] = test: Test A pre-/postemergence herbicide test; type: in vivo, Setaria faberi
Outline: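 Plants are held in greenhouse about ten days after treatment, then compared with untreated controls and scored 0 (no effect) to 100 (complete control). Preemergence dosing is a directed soil spray on sown sandy loam; postemergence dosing is spray to runoff at 2–10 cm height.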

bermudagrass = test: Test C pre-/postemergence herbicide test; type: in vivo, Cynodon dactylon; details: for Bermudagrass plant response rating: 500 g ai/ha
Outline: (§1)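 Greenhouse-grown plants were evaluated visually 12 to 14 days after treatment, with 100 meaning complete control and 0 no effect. Application was preemergence, or postemergence at 2 to 18 cm.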

large crabgrass = test: Test C pre-/postemergence herbicide test; type: in vivo, Digitaria sanguinalis
Outline: as §1

giant foxtail [2] = test: Test C pre-/postemergence herbicide test; type: in vivo, Setaria faberi
Outline: as §1

kochia = test: Test C pre-/postemergence herbicide test; type: in vivo, Kochia scoparia
Outline: as §1

morningglory = test: Test C pre-/postemergence herbicide test; type: in vivo, Ipomoea coccinea; parameters: key to Plant response rating, Morningglory: 0 = no effect, 100 = complete control
Outline: as §1

yellow nutsedge = test: Test C pre-/postemergence herbicide test; type: in vivo, Cyperus esculentus
Outline: as §1

pigweed = test: Test C pre-/postemergence herbicide test; type: in vivo, Amaranthus retroflexus
Outline: as §1

common ragweed = test: Test C pre-/postemergence herbicide test; type: in vivo, Ambrosia elatior; parameters: key to Plant response rating, Ragweed: 0 = no effect, 100 = complete control; details: for Ragweed plant response rating: Preemergence
Outline: as §1

soybean = test: Test C pre-/postemergence herbicide test; type: in vivo, Glycine max
Outline: as §1

[3] = Postemergence, 500 g ai/ha, 0 to 100 scale, 0 no effect, 100 complete control
[4] = Postemergence, 2000 g ai/ha, 0 to 100 scale, 0 no effect, 100 complete control
[5] = Preemergence, 2000 g ai/ha, visual rating, 0 to 100 scale (0 no effect, 100 complete control)
[6] = 62 g ai/ha, preemergence, scale 0 to 100, 0 no effect, 100 complete control
[7] = 125 g ai/ha, scale 0 (no effect) to 100 (complete control), visual, 12 to 14 days, preemergence
[8] = 250 g ai/ha, scale 0 to 100 (0 no effect, 100 complete control), visual, 12 to 14 days, preemergence
[9] = Preemergence, scale 0 to 100, 0 no effect, 100 complete control
[10] = 62 g ai/ha, preemergence, scale 0 to 100
[11] = Preemergence, 500 g ai/ha, scale 0 to 100, 0 no effect, 100 complete control
[12] = 500 g ai/ha, scale 0 to 100, 0 no effect, 100 complete control
[13] = preemergence, 500 g ai/ha, visual injury, 0 to 100 scale (0 no effect, 100 complete control)
[14] = 250 g ai/ha, scale 0-100, preemergence
[15] = Postemergence, 250 g ai/ha, scale 0 to 100, 0 no effect, 100 complete control
[16] = postemergence, 125 g ai/ha, scale 0 to 100
[17] = postemergence, 62 g ai/ha, scale 0 to 100
[18] = 500 g ai/ha, scale 0 to 100 (0 no effect, 100 complete control), visual, 12 to 14 days, preemergence
[19] = Postemergence, 500 g ai/ha, scale 0 to 100

CCN(CC)C(=O)c1ccnc(NC(=O)c2cc(C(C)(C)C)nn2CC)c1 [Compound 153]
65: Plant response rating, Kochia (kochia; [10])
45: Nutsedge, Yellow plant response rating (yellow nutsedge; [11])
15: Foxtail, Giant plant response rating (giant foxtail [1]; Preemergence, 500 g ai/ha, visual rating, 0 to 100 scale (0 no effect, 100 complete control)) | Morningglory plant response rating (morningglory; [11]) | Soybean plant response rating (soybean; [11])
0: Plant response rating, Crabgrass, Large (large crabgrass; [10]) | Plant response rating, Crabgrass, Large (large crabgrass; [7]) | Plant response rating, Crabgrass, Large (large crabgrass; [8]) | Plant response rating, Foxtail, Giant (giant foxtail [2]; [10]) | Plant response rating, Foxtail, Giant (giant foxtail [2]; [7]) | Plant response rating, Foxtail, Giant (giant foxtail [2]; [8]) | Foxtail, Giant plant response rating (giant foxtail [2]; [11]) | Plant response rating, Morningglory (morningglory; [10]) | Plant response rating, Morningglory (morningglory; [7]) | Plant response rating, Nutsedge, Yellow (yellow nutsedge; [10]) | Plant response rating, Nutsedge, Yellow (yellow nutsedge; [7]) | Plant response rating, Ragweed (common ragweed; [10]) | Plant response rating, Ragweed (common ragweed; [7]) | Plant response rating, Soybean (soybean; [10]) | Plant response rating, Soybean (soybean; [7])
100: Bermudagrass plant response rating (bermudagrass; [9]) | Kochia plant response rating (kochia; [11]) | Plant response rating, Pigweed (pigweed; [7]) | Pigweed plant response rating (pigweed; [11]) | Ragweed plant response rating (common ragweed; [12])
80: Crabgrass, Large plant response rating (large crabgrass; [11])
90: Plant response rating, Foxtail, Giant (giant foxtail [1]; [4])
70: Plant response rating, Bermudagrass (bermudagrass; [6])
95: Plant response rating, Bermudagrass (bermudagrass; [7]) | Plant response rating, Bermudagrass (bermudagrass; [8]) | Plant response rating, Kochia (kochia; [7]) | Plant response rating, Pigweed (pigweed; [10])
20: Foxtail, Giant plant response rating (giant foxtail [1]; [3])
60: Foxtail, Giant plant response rating (giant foxtail [1]; [5])

CCN(CC)C(=O)c1cccc(NC(=O)c2sc(C(C)(C)C)nc2C)c1 [Compound 199]
85: Plant response rating, Bermudagrass (bermudagrass; [7]) | Plant response rating, Kochia (kochia; [7])
0: Plant response rating, Foxtail, Giant (giant foxtail [2]; [10]) | Plant response rating, Nutsedge, Yellow (yellow nutsedge; [10]) | Plant response rating, Nutsedge, Yellow (yellow nutsedge; [7]) | Plant response rating, Nutsedge, Yellow (yellow nutsedge; [14]) | Nutsedge, Yellow plant response rating (yellow nutsedge; [11]) | Plant response rating, Soybean (soybean; [10]) | Plant response rating, Soybean (soybean; [7])
90: Plant response rating, Crabgrass, Large (large crabgrass; [7]) | Plant response rating, Crabgrass, Large (large crabgrass; [14]) | Plant response rating, Kochia (kochia; [14]) | Kochia plant response rating (kochia; [11])
25: Foxtail, Giant plant response rating (giant foxtail [1]; [3])
5: Plant response rating, Soybean (soybean; [14])
95: Crabgrass, Large plant response rating (large crabgrass; [11])
60: Plant response rating, Ragweed (common ragweed; [7])
55: Plant response rating, Bermudagrass (bermudagrass; [6]) | Plant response rating, Ragweed (common ragweed; [10])
30: Soybean plant response rating (soybean; [11])
100: Foxtail, Giant plant response rating (giant foxtail [1]; [5]) | Plant response rating, Bermudagrass (bermudagrass; [14]) | Bermudagrass plant response rating (bermudagrass; [9]) | Foxtail, Giant plant response rating (giant foxtail [2]; [11]) | Plant response rating, Pigweed (pigweed; [10]) | Plant response rating, Pigweed (pigweed; [7]) | Plant response rating, Pigweed (pigweed; [14]) | Pigweed plant response rating (pigweed; [11])
65: Plant response rating, Foxtail, Giant (giant foxtail [1]; [4])
10: Plant response rating, Crabgrass, Large (large crabgrass; [10]) | Plant response rating, Foxtail, Giant (giant foxtail [2]; [7])
70: Plant response rating, Morningglory (morningglory; [14]) | Morningglory plant response rating (morningglory; [11])
50: Plant response rating, Morningglory (morningglory; [7])
80: Foxtail, Giant plant response rating (giant foxtail [1]; [13]) | Plant response rating, Foxtail, Giant (giant foxtail [2]; [14]) | Plant response rating, Kochia (kochia; [10]) | Plant response rating, Ragweed (common ragweed; [14]) | Ragweed plant response rating (common ragweed; [12])

CCc1nc(C(C)(C)C)sc1C(=O)Nc1cccc(C(=O)N(CC)CC)c1 [Compound 205]
50: Morningglory plant response rating (morningglory; [11]) | Plant response rating, Ragweed (common ragweed; [14])
10: Foxtail, Giant plant response rating (giant foxtail [1]; [3]) | Plant response rating, Foxtail, Giant (giant foxtail [2]; [7]) | Plant response rating, Morningglory (morningglory; [14]) | Nutsedge, Yellow plant response rating (yellow nutsedge; [11])
60: Plant response rating, Crabgrass, Large (large crabgrass; [10]) | Soybean plant response rating (soybean; [11])
90: Plant response rating, Bermudagrass (bermudagrass; [6]) | Plant response rating, Kochia (kochia; [10]) | Plant response rating, Kochia (kochia; [7]) | Plant response rating, Kochia (kochia; [14]) | Kochia plant response rating (kochia; [11]) | Plant response rating, Pigweed (pigweed; [10])
25: Plant response rating, Foxtail, Giant (giant foxtail [1]; [4])
0: Plant response rating, Foxtail, Giant (giant foxtail [2]; [10]) | Plant response rating, Morningglory (morningglory; [10]) | Plant response rating, Morningglory (morningglory; [7]) | Plant response rating, Nutsedge, Yellow (yellow nutsedge; [10]) | Plant response rating, Nutsedge, Yellow (yellow nutsedge; [7]) | Plant response rating, Nutsedge, Yellow (yellow nutsedge; [14]) | Plant response rating, Ragweed (common ragweed; [10])
85: Foxtail, Giant plant response rating (giant foxtail [1]; [13])
100: Foxtail, Giant plant response rating (giant foxtail [1]; [5]) | Plant response rating, Bermudagrass (bermudagrass; [7]) | Plant response rating, Bermudagrass (bermudagrass; [14]) | Bermudagrass plant response rating (bermudagrass; [9]) | Plant response rating, Crabgrass, Large (large crabgrass; [14]) | Crabgrass, Large plant response rating (large crabgrass; [11]) | Pigweed plant response rating (pigweed; [11]) | Ragweed plant response rating (common ragweed; [12])
95: Foxtail, Giant plant response rating (giant foxtail [2]; [11]) | Plant response rating, Pigweed (pigweed; [7]) | Plant response rating, Pigweed (pigweed; [14])
80: Plant response rating, Crabgrass, Large (large crabgrass; [7]) | Plant response rating, Foxtail, Giant (giant foxtail [2]; [14])
20: Plant response rating, Ragweed (common ragweed; [7]) | Plant response rating, Soybean (soybean; [7]) | Plant response rating, Soybean (soybean; [14])

CCc1nc(C(C)(C)C)sc1C(=O)Nc1cccc(C(=O)NCC2CC2)c1 [Compound 212]
0: Plant response rating, Bermudagrass (bermudagrass; [16]) | Plant response rating, Bermudagrass (bermudagrass; [17]) | Plant response rating, Crabgrass, Large (large crabgrass; [17]) | Plant response rating, Foxtail, Giant (giant foxtail [2]; [10]) | Plant response rating, Morningglory (morningglory; [10]) | Plant response rating, Morningglory (morningglory; [7]) | Plant response rating, Nutsedge, Yellow (yellow nutsedge; [10]) | Plant response rating, Nutsedge, Yellow (yellow nutsedge; [7]) | Plant response rating, Nutsedge, Yellow (yellow nutsedge; [14]) | Plant response rating, Nutsedge, Yellow (yellow nutsedge; [18]) | Plant response rating, Nutsedge, Yellow (yellow nutsedge; [17]) | Plant response rating, Ragweed (common ragweed; [10]) | Plant response rating, Ragweed (common ragweed; [7]) | Plant response rating, Soybean (soybean; [10]) | Plant response rating, Soybean (soybean; [7]) | Plant response rating, Soybean (soybean; [14])
60: Plant response rating, Bermudagrass (bermudagrass; [6]) | Plant response rating, Crabgrass, Large (large crabgrass; [10]) | Foxtail, Giant plant response rating (giant foxtail [2]; [19]) | Plant response rating, Ragweed (common ragweed; [16]) | Plant response rating, Ragweed (common ragweed; [17]) | Plant response rating, Soybean (soybean; [18]) | Plant response rating, Soybean (soybean; [16])
5: Plant response rating, Morningglory (morningglory; [14])
90: Plant response rating, Kochia (kochia; [14]) | Kochia plant response rating (kochia; [19]) | Plant response rating, Kochia (kochia; [15]) | Pigweed plant response rating (pigweed; [19])
85: Plant response rating, Crabgrass, Large (large crabgrass; [14]) | Plant response rating, Kochia (kochia; [10]) | Plant response rating, Kochia (kochia; [7]) | Soybean plant response rating (soybean; [19])
50: Bermudagrass plant response rating (bermudagrass; Postemergence, scale 0 to 100) | Plant response rating, Foxtail, Giant (giant foxtail [2]; [15]) | Plant response rating, Pigweed (pigweed; [17]) | Plant response rating, Soybean (soybean; [17])
10: Plant response rating, Bermudagrass (bermudagrass; [15]) | Plant response rating, Crabgrass, Large (large crabgrass; [16]) | Plant response rating, Foxtail, Giant (giant foxtail [2]; [17]) | Plant response rating, Morningglory (morningglory; [16]) | Plant response rating, Morningglory (morningglory; [17]) | Plant response rating, Nutsedge, Yellow (yellow nutsedge; [16])
20: Crabgrass, Large plant response rating (large crabgrass; [19]) | Plant response rating, Crabgrass, Large (large crabgrass; [15]) | Plant response rating, Foxtail, Giant (giant foxtail [2]; [7]) | Plant response rating, Foxtail, Giant (giant foxtail [2]; [14]) | Plant response rating, Foxtail, Giant (giant foxtail [2]; [16]) | Nutsedge, Yellow plant response rating (yellow nutsedge; [19]) | Plant response rating, Nutsedge, Yellow (yellow nutsedge; [15])
45: Foxtail, Giant plant response rating (giant foxtail [1]; [3])
80: Plant response rating, Foxtail, Giant (giant foxtail [1]; [4]) | Plant response rating, Bermudagrass (bermudagrass; [14]) | Plant response rating, Crabgrass, Large (large crabgrass; [7]) | Plant response rating, Kochia (kochia; [16]) | Plant response rating, Kochia (kochia; [17]) | Plant response rating, Ragweed (common ragweed; [15])
70: Foxtail, Giant plant response rating (giant foxtail [1]; [13]) | Morningglory plant response rating (morningglory; [19]) | Plant response rating, Morningglory (morningglory; [15]) | Plant response rating, Pigweed (pigweed; [15]) | Plant response rating, Soybean (soybean; [15])
30: Plant response rating, Morningglory (morningglory; [18]) | Plant response rating, Ragweed (common ragweed; [14])
100: Bermudagrass plant response rating (bermudagrass; [9]) | Plant response rating, Crabgrass, Large (large crabgrass; [18]) | Plant response rating, Pigweed (pigweed; [10]) | Plant response rating, Pigweed (pigweed; [7]) | Plant response rating, Pigweed (pigweed; [14]) | Plant response rating, Pigweed (pigweed; [18])
95: Foxtail, Giant plant response rating (giant foxtail [1]; [5]) | Plant response rating, Foxtail, Giant (giant foxtail [2]; [18]) | Plant response rating, Kochia (kochia; [18]) | Plant response rating, Ragweed (common ragweed; [18])
75: Plant response rating, Bermudagrass (bermudagrass; [7])
